Measured values reported in patent publication US20220002314A1 (priority 2018, published 2022).
Read-outs that look alike come from different tables or passages of the source.

Tests used:
[1] = biological target: Human α2δ-1 subunit of Cav2.2 calcium channel (Homo sapiens, UniProt P54289); experiment: biochemical; format: binding
Human μ-opioid receptor = Human μ-opioid receptor (Homo sapiens, UniProt P35372); experiment: biochemical; format: binding
Chain of Human μ-opioid receptor (P35372 whole entry): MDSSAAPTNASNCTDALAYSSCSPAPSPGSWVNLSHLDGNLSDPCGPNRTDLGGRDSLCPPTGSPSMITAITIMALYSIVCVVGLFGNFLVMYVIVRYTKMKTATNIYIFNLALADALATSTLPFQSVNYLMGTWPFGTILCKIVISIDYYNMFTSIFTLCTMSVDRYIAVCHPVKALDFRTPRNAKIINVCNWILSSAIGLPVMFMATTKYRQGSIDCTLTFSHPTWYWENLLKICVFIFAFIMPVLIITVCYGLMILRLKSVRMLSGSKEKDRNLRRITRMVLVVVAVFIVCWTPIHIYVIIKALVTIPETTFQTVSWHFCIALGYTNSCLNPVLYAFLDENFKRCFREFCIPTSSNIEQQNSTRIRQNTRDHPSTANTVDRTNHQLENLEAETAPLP

Chain of Human α2δ-1 subunit of Cav2.2 calcium channel (P54289 25-1103): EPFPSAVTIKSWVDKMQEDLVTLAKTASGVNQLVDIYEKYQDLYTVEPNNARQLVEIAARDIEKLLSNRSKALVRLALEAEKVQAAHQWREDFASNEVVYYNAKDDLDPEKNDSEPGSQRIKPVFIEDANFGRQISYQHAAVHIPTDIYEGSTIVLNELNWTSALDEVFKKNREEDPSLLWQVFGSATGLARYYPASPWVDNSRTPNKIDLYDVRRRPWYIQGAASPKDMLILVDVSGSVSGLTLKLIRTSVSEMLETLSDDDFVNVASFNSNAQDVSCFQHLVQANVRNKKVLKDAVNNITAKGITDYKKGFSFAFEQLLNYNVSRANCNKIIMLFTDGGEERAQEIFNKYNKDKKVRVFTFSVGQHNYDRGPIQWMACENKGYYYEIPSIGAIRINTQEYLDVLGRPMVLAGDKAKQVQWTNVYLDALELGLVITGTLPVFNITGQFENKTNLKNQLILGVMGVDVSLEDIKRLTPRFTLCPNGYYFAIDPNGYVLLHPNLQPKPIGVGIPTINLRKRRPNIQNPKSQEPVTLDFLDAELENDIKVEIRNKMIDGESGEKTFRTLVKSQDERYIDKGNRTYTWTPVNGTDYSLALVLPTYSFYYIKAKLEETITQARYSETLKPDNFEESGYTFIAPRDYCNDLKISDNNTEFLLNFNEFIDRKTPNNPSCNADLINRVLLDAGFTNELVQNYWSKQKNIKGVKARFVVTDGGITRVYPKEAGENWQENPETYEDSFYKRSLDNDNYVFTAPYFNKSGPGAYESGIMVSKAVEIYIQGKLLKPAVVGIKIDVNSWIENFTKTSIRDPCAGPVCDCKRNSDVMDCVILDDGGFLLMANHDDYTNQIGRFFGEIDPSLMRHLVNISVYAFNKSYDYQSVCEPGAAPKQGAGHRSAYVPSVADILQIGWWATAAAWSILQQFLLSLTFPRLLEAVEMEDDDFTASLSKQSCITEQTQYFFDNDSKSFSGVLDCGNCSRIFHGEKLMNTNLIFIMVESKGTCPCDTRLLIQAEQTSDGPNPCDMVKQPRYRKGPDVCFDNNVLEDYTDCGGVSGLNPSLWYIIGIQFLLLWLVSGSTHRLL

Ki ([1]; read-out: α2δ-1 binding) [nM]	Ki (Human μ-opioid receptor; read-out: μ-binding) [nM]	Compound	Ki [1] [nM]	Ki (Human μ-opioid receptor) [nM]
–	–	CCC[C@H](c1nc2cnc(C(F)(F)F)cc2c(=O)n1CC)N1CCN[C@H](C)C1 [Example 233, 3-Ethyl-2-((R)-1-((R)-3-methylpiperazin-1-yl)butyl)-6-(trifluoromethyl)pyrido[3,4-d]pyrimidin-4(3H)-one]	< 500	> 500
–	–	CCCC(c1nc2ccc(N3CCC(N(C)Cc4ccccc4)CC3)cc2c(=O)n1CC)N1C[C@@H](C)N[C@@H](C)C1 (stereo partly drawn) [Example 151, 6-(4-(benzyl(methyl)amino)piperidin-1-yl)-2-(1-((3S,5R)-3,5-dimethylpiperazin-1-yl)butyl)-3-ethylquinazolin-4(3H)-one]	< 500	> 500
500 to 5000	> 500	CCC[C@@H](c1nc2ccc(N3C[C@H](C)OC4(CCNCC4)C3)cc2c(=O)n1CC)N1C[C@@H](C)N[C@@H](C)C1 [Example 152, 2-((S)-1-((3S,5R)-3,5-Dimethylpiperazin-1-yl)butyl)-3-ethyl-6-((S)-2-methyl-1-oxa-4,9-diazaspiro[5.5]undecan-4-yl)quinazolin-4(3H)-one]	–	–
–	–	CCC[C@H](c1nc2ccccc2c(=O)n1CC)N1CCN[C@@H](C)C1 [Example 43, 3-Ethyl-2-((R)-1-((S)-3-methylpiperazin-1-yl)butyl)quinazolin-4(3H)-one]	< 500	> 500
–	–	CCC[C@H](c1nc2cc(F)c(Cl)cc2c(=O)n1C)N1CCN[C@@H](C)C1 [Example 221, 6-chloro-7-fluoro-3-methyl-2-((R)-1-((S)-3-methylpiperazin-1-yl)butyl)quinazolin-4(3H)-one]	500 to 5000	< 100
500 to 5000	> 500	CCCC(c1nc2cc(-c3ccnc(CNC)c3)ccc2c(=O)n1C)N1C[C@@H](C)N[C@@H](C)C1 (stereo partly drawn) [Example 136, 2-(1-((3S,5R)-3,5-dimethylpiperazin-1-yl)butyl)-3-methyl-7-(2-((methylamino)methyl)pyridin-4-yl)quinazolin-4(3H)-one]	–	–
> 5000	> 500	CCCC(c1nc2ccccc2c(=O)n1CCN(C)C)N1C[C@@H](C)N(C)[C@@H](C)C1 (stereo partly drawn) [Example 131, 3-(2-(Dimethylamino)ethyl)-2-(1-((3S,5R)-3,4,5-trimethylpiperazine-1-yl)butyl)quinazolin-4(3H)-one]	–	–
–	–	CCCC(c1nc2ccccc2c(=O)n1Cc1ccco1)N1C[C@@H](C)N[C@@H](C)C1 (stereo partly drawn) [Example 118, 2-(1-((3S,5R)-3,5-dimethylpiperazin-1-yl)butyl)-3-(furan-2-ylmethyl)quinazolin-4(3H)-one]	< 500	> 500
–	–	CCC[C@@H](c1nc2ccc(Cl)cc2c(=O)n1CC)N1CCN[C@@H](C)C1 [Example 104, 6-chloro-3-ethyl-2-((S)-1-((S)-3-methylpiperazin-1-yl)butyl)quinazolin-4(3H)-one]	> 5000	> 500
–	–	CCCC(c1nc2c(C)cc(Br)cc2c(=O)n1CC)N1CCNCC1 (centres unmarked) [Example 89, 6-bromo-3-ethyl-8-methyl-2-(1-(piperazin-1-yl)butyl)quinazolin-4(3H)-one]	> 5000	< 100
–	–	CCC[C@H](c1nc2ccc(Br)cc2c(=O)n1CC)[C@H]1CCNCC1(F)F (single isomer, unassigned) [Example 189]	< 500	> 500
–	–	CCC[C@@H](c1nc2nc(C(F)(F)F)ccc2c(=O)n1CC)N1CCN[C@@H](C)C1 [Example 77, 3-Ethyl-2-((S)-1-((S)-3-methylpiperazin-1-yl)butyl)-7-(trifluoromethyl)pyrido[2,3-d]pyrimidin-4(3H)-one]	> 5000	> 500
–	–	CCCC(c1nc2cc(N3CCCC3)ccc2c(=O)n1CC)N1C[C@@H](C)N[C@@H](C)C1 (stereo partly drawn) [Example 137, 2-(1-((3S,5R)-3,5-Dimethylpiperazin-1-yl)butyl)-3-ethyl-7-(pyrrolidin-1-yl)quinazolin-4(3H)-one]	< 500	> 500
–	–	CCC[C@@H](c1nc2ccc(Br)cc2c(=O)n1C)N1CCN[C@@H](C)C1 [Example 42, 6-bromo-3-methyl-2-((S)-1-((S)-3-methylpiperazin-1-yl)butyl)quinazolin-4(3H)-one]	> 5000	> 500
–	–	CCCC(c1nc2ccc(N(C)CCNC)cc2c(=O)n1CC)N1C[C@@H](C)N[C@@H](C)C1 (stereo partly drawn) [Example 146, 2-(1-((3S,5R)-3,5-dimethylpiperazin-1-yl)butyl)-3-ethyl-6-(methyl(2-(methylamino)ethyl)amino)quinazolin-4(3H)-one]	< 500	> 500
–	–	CCCC(c1nc2cc(C#N)ccc2c(=O)n1C)N1C[C@@H](C)N[C@@H](C)C1 (stereo partly drawn) [Example 176, 2-(1-((3S,5R)-3,5-Dimethylpiperazin-1-yl)butyl)-3-methyl-4-oxo-3,4-dihydroquinazoline-7-carbonitrile]	< 500	> 500
–	–	CCC[C@H](c1nc2ccncc2c(=O)n1CC)N1CCN[C@H](C)C1 [Example 64, 3-Ethyl-2-((R)-1-((R)-3-methylpiperazin-1-yl)butyl)pyrido[4,3-d]pyrimidin-4(3H)-one]	< 500	> 500

Ki ([1]; read-out: α2δ-1 binding) [nM]	Ki (Human μ-opioid receptor; read-out: μ-binding) [nM]	Compound	Ki [1] [nM]	Ki (Human μ-opioid receptor) [nM]
–	–	CCC[C@@H](c1nc2c(F)cc(Br)cc2c(=O)n1CC)N1CCN[C@H](C)C1 [Example 48, 6-bromo-3-ethyl-8-fluoro-2-((S)-1-((R)-3-methylpiperazin-1-yl)butyl)quinazolin-4(3H)-one]	> 5000	> 500
–	–	CCC[C@H](c1nc2ccc(Br)cc2c(=O)n1CC)N1CCN[C@H](C)C1 [Example 98, 6-bromo-3-ethyl-2-((R)-1-((R)-3-methylpiperazin-1-yl)butyl)quinazolin-4(3H)-one]	< 500	> 500
–	–	CCCC(c1nc2cc(NCCNC)ccc2c(=O)n1CC)N1C[C@@H](C)N[C@@H](C)C1 (stereo partly drawn) [Example 147, 2-(1-((3S,5R)-3,5-dimethylpiperazin-1-yl)butyl)-3-ethyl-7-((2-(methylamino)ethyl)amino)quinazolin-4(3H)-one]	< 500	> 500
–	–	CCC[C@H](c1nc2cc(O[C@H](CNC)c3ccccc3)ccc2c(=O)n1C)N1C[C@@H](C)N[C@@H](C)C1 [Example 170, 2-((R)-1-((3S,5R)-3,5-dimethylpiperazin-1-yl)butyl)-3-methyl-7-((S)-2-(methylamino)-1-phenylethoxy)quinazolin-4(3H)-one]	< 500	> 500
–	–	CCC[C@H](c1nc2ccc(OC)cc2c(=O)n1CC)N1CCN[C@@H](C)C1 [Example 215, 3-ethyl-6-methoxy-2-((R)-1-((S)-3-methylpiperazin-1-yl)butyl)quinazolin-4(3H)-one]	< 500	> 500
500 to 5000	> 500	CCCC(c1nc2ccc(Br)cc2c(=O)n1CC)C1CCNCC1 (centres unmarked) [Example 187, 6-Bromo-3-ethyl-2-(1-(piperidin-4-yl)butyl)quinazolin-4(3H)-one]	–	–
500 to 5000	> 500	CCCC(c1nc2ccccc2c(=O)n1CCN(C)CCCc1ccccc1)N1C[C@@H](C)N[C@@H](C)C1 (stereo partly drawn) [Example 130, 2-(1-((3S,5R)-3,5-dimethylpiperazin-1-yl)butyl)-3-(2-(methyl(3-phenylpropyl)amino)ethyl)quinazolin-4(3H)-one]	–	–
–	–	CCC[C@@H](c1nc2cc(O[C@H](CCNC)c3ccccc3)ccc2c(=O)n1C)N1C[C@@H](C)N[C@@H](C)C1 [Example 164, 2-((S)-1-((3S,5R)-3,5-Dimethylpiperazin-1-yl)butyl)-3-methyl-7-((R)-3-(methylamino)-1-phenylpropoxy)quinazolin-4(3H)-one]	500 to 5000	> 500
–	–	CCC[C@H](c1nc2c(F)cc(F)cc2c(=O)n1CC)N1CCN[C@@H](C)C1 [Example 201, 3-ethyl-6,8-difluoro-2-((R)-1-((S)-3-methylpiperazin-1-yl)butyl)quinazolin-4(3H)-one]	< 500	< 100
–	–	CCCC(c1nc2ccc(N3CCC(N)CC3)cc2c(=O)n1CC)N1C[C@@H](C)N[C@@H](C)C1 (stereo partly drawn) [Example 141, 6-(4-aminopiperidin-1-yl)-2-(1-((3S,5R)-3,5-dimethylpiperazin-1-yl)butyl)-3-ethylquinazolin-4(3H)-one]	< 500	> 500
–	–	CCCC(c1nc2ccc(Br)c(C)c2c(=O)n1CC)N1CCNCC1 (centres unmarked) [Example 84, 6-bromo-3-ethyl-5-methyl-2-(1-(piperazin-1-yl)butyl)quinazolin-4(3H)-one]	500 to 5000	100 to 500
–	–	CCC[C@H](c1nc2ccc(Br)cc2c(=O)n1CC)[C@H]1CCN[C@@H](C)C1 [Example 191, 6-bromo-3-ethyl-2-((S)-1-((2S,4S)-2-methylpiperidin-4-yl)butyl)quinazolin-4(3H)-one]	< 500	100 to 500
–	–	CCCC(c1nc2cc(C)c(Br)cc2c(=O)n1CC)N1C[C@@H](C)N[C@@H](C)C1 (stereo partly drawn) [Example 19, 6-bromo-2-(1-((3S,5R)-3,5-dimethylpiperazin-1-yl)butyl)-3-ethyl-7-methylquinazolin-4(3H)-one]	< 500	> 500
–	–	CCC[C@H](c1nc2cc(O[C@@H](CCNC)c3ccccc3)ccc2c(=O)n1C)N1C[C@@H](C)N[C@@H](C)C1 [Example 167, 2-((R)-1-((3S,5R)-3,5-dimethylpiperazin-1-yl)butyl)-3-methyl-7-((S)-3-(methylamino)-1-phenylpropoxy)quinazolin-4(3H)-one]	< 500	> 500
–	–	CCC[C@H](c1nc2cccnc2c(=O)n1CC)N1CCN[C@@H](C)C1 [Example 70, 3-Ethyl-2-((R)-1-((S)-3-methylpiperazin-1-yl)butyl)pyrido[3,2-d]pyrimidin-4(3H)-one]	< 500	> 500
–	–	CCCC(c1nc2cc(-c3cccc(O)c3)ccc2c(=O)n1CC)N1C[C@@H](C)N[C@@H](C)C1 (stereo partly drawn) [Example 134, 2-(1-((3S,5R)-3,5-dimethylpiperazin-1-yl)butyl)-3-ethyl-7-(3-hydroxyphenyl)quinazolin-4(3H)-one]	< 500	> 500
500 to 5000	> 500	CCCC(c1nc2ccccc2c(=O)n1C)N1CCNCC1 (centres unmarked) [Example 80, 3-methyl-2-(1-(piperazin-1-yl)butyl)quinazolin-4(3H)-one]	–	–
